The values that follow come from publication PMC3101270 (Biochemistry, 2011).

The target in assay [1] is T1, PfOPRT (Plasmodium falciparum, UniProt Q8N0R1).
T1 sequence (Q8N0R1 1-281): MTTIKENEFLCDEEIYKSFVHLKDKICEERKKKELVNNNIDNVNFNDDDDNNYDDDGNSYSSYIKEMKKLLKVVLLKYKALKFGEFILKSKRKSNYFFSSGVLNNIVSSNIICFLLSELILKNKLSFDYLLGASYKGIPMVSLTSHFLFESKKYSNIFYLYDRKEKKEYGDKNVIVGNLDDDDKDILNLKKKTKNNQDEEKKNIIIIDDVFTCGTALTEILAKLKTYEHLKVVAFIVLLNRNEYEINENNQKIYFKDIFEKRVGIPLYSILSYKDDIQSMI
As to the kind of experiment: ultrafiltration with 3H/[…]-labelled ligand. It counts as binding.

Assay [2] addresses T2, HsOPRT (Homo sapiens, UniProt P11172).
T2 sequence (P11172 2-214 limits assumed): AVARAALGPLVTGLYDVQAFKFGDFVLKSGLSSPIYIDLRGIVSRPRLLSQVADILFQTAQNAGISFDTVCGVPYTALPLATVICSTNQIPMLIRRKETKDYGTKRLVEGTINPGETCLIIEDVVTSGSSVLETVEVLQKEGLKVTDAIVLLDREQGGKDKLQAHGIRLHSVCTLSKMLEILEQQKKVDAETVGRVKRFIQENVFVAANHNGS
Description: ultrafiltration with 3H/[…]-labelled ligand. The format is binding.

Assay [3] has as its target T1, PfOPRT. Description: enzyme inhibition. It counts as biochemical.
Assay [4] deals with T2, HsOPRT. As to the kind of experiment: enzyme inhibition. The format is biochemical.

Each structure is given as a SMILES string.

With `O=C(O)c1cc(=O)[nH]c(=O)n1[C@@H]1O[C@H](COP(=O)(O)O)[C@@H](O)[C@H]1O` [OMP], the Kd at PfOPRT [1] amounted to 3.1 ± 1.6 µM; on HsOPRT [2], 2500 ± 1200 nM.
With `O=S(=O)(O)O` [sulfate], the Ki on PfOPRT [3] was 3.1 ± 0.3 mM; at HsOPRT [4] it was 17.6 ± 2.8 mM.
